Holding throughout (experiment): NCI tumour cell line growth inhibition, 48 h
For assay [1], the system named is HL-60.
The subject of assay [2] is Hs-578T.
The subject of assay [3] is CCRF-CEM.
Assay [4] relates to CAKI-1.
Assay [5] concerns SN12C.
Assay [6] has as its system UACC-257.
Assay [7] deals with TK-10.
Assay [8] has as its system NCI-H226.
Assay [9] deals with SF-295.
Assay [10] concerns K562.
For assay [11], the system named is A498.
The subject of assay [12] is RPMI-8226.
Assay [13] relates to SF-268.
The subject of assay [14] is U-251.
Assay [15] concerns LOX IMVI.
In assay [16] the test system is RXF 393.
Assay [17] deals with HCC 2998.
Assay [18] deals with SW-620.
In assay [19] the test system is UACC-62.
Assay [20] relates to OVCAR-5.

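Five concentrations, 48 hours, 96-well plates. At the GI50, growth is halved.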 Active and inactive are the calls of the source. Cut-off read from the data, not from the text of the source: active = GI50 up to about 1.1 µM and inactive = higher.

For `Cc1cc(O)ccc1C1(c2ccc(F)cc2)OC(=O)c2ccccc21` (stereo not given), the GI50 is 34 µM (inactive) in assay [1]; 0.263 µM (active) in assay [2]; 28.3 µM (inactive) in [3]; 3.78 µM (inactive) in assay [4]; 0.485 µM (active) in assay [5]; 12.6 µM (inactive) in assay [6]. The GI50 in [7] was 4.01 µM (inactive); in assay [8] it was 2.38 µM (inactive); in assay [9], 3.48 µM (inactive); in assay [10], 6.87 µM (inactive); in [11], 13.6 µM (inactive); in assay [12], 21.7 µM (inactive). Further, the GI50 in [13] was 7.73 µM (inactive); in assay [14] it was 15.5 µM (inactive); in assay [15], 2.31 µM (inactive); in assay [16] it was 1.24 µM (inactive); in [17], 4.33 µM (inactive); in assay [18], 12.9 µM (inactive). The GI50 was 3.39 µM (inactive) in assay [19] and 6.64 µM (inactive) in assay [20].
As to `Nc1nc(Cl)cc(NCC2(CO)CCC(Cc3ccccc3)C2)n1` (stereo not given), the GI50 in assay [1] was 2.69 µM (inactive); in assay [2], 25.4 µM (inactive); in assay [3], 6.68 µM (inactive); in assay [4], 19.3 µM (inactive); in [5], 52.7 µM (inactive); in [6], 2.78 µM (inactive). Also, the GI50 in assay [7] is 26 µM (inactive); in assay [8], 22.3 µM (inactive); in assay [9], 10.1 µM (inactive); in assay [10] it was 1.21 µM (inactive); in assay [11], 12.6 µM (inactive); in [12] it was 12 µM (inactive). For the same compound, the GI50 is 30.1 µM (inactive) in assay [13]; 25.6 µM (inactive) in assay [14]; 8.59 µM (inactive) in assay [15]; 28.5 µM (inactive) in [16]; 25.8 µM (inactive) in [17]; 15 µM (inactive) in [18]. Moreover, the results for the GI50 in [19] and in assay [20] were 11.9 µM (inactive) and 33.3 µM (inactive), respectively.

These data come from ChEMBL document CHEMBL1201862, “PubChem BioAssay data set” (2004).
